Our source for the melting point values is patent US11076596B2, “Substituted trifluoromethyloxadiazoles for combating phytopathogenic fungi” (BASF SE, priority 2017, dated 2021).

SMILES strings stand for the structures.

As to `CO/N=C1\CCCC1NC(=O)c1ccc(-c2noc(C(F)(F)F)n2)cc1` (stereo not shown) [Ex-1, N-[(2E)-2-methoxyiminocyclopentyl]-4-[5-(trifluoromethyl)-1,2,4-oxadiazol-3-yl]benzamide], the melting point amounted to 175 °C.

One may read the melting point as the temperature of the solid-liquid transition.
